Source: PMC6225212, “Synthesis and Pharmacological Evaluation of Novel Silodosin-Based Arylsulfonamide Derivatives as α1A/α1D-Adrenergic Receptor Antagonist with Potential Uroselective Profile” (Molecules : A Journal of Synthetic Chemistry and Natural …, 2018)

Tests used:
[1] = In vitro metabolic stability in rat-liver microsomes (RLM); assay type: in vitro ADME
Method: In vitro biotransformation assays of selected compounds 9 and 10 were performed using rat-liver microsomes (RLM), potassium-phosphate buffer, NADPH-regenerating system (NADP, glucose-6-phosphate, glucose-6-phosphate dehydrogenase), and levallorphan as internal standard, according to the previously published procedure. Compound I and the drug tamsulosin were used as reference standard. UPLC/MS analysis (Waters Corporation, Milford, MA, USA) was performed to determine the quantity of the starting material left in solution. The in vitro half-time (t1/2) for test compounds was determined from the slope of the linear regression of ln % parent compound remaining versus incubation time. The calculated t1/2 was incorporated into the following equation to obtain intrinsic clearance: (Clint) = (volume of incubation [µL]/protein in the incubation [mg]) × 0.693/t1/2.
Metabolic stability of tested compound was analyzed using incubation systems, composed of: tested compounds (10 μM), RLMs (microsomes from rat male liver, pooled; 0.2 mg/mL; Sigma Aldrich), NADPH-regenerating system (NADP+, glucose-6-phosphate and glucose-6-phosphate dehydrogenase in 100mM potassium buffer, pH 7.4; all from Sigma Aldrich), and potassium buffer, pH 7.4. […] Firstly, all samples contained incubation mixture (without NADPH-regenerating system) were preincubated in a thermoblock at 37 °C for 10 min. Then reaction was initiated by the addition of NADPH-regenerating system. In control samples NADPH-regenerating system was replaced with potassium buffer. Probes were incubated in thermoblock for 15 and 30 min at 37 °C. After addition of internal standard (levallorphan, 10 μM), the biotransformation process was stopped by addition of perchloric acid (69–72%, by volume). Next, samples were centrifuged (Centrifuge 5427 R, Eppendorf, Hamburg, Germany) and supernatants were analyzed using UPLC/MS (Waters Corporation). All experiments were run in duplicates. Half-life time was evaluated using a nonlinear regression model using Graph Pad Prism software (Graph Pad Software, La Jolla, San Diego, CA, USA) and intrinsic clearance was calculated from the equation Clint = (volume of incubation [μL]/protein in the incubation [mg]) ×∙0.693/t1/2 [33].

α2-ARs = biological target: α2-ARs; design: method as in PMID 27658792; conditions: [3H]-Clonidine, rat cerebral cortex; ± SEM; cited from earlier work
α1A-ARs = biological target: T1, α1A-ARs (Homo sapiens, UniProt P35348); design: method as in PMID 27658792; key to α1A Profile: ANT—antagonist; AGO—agonist; conditions: cited from earlier work
T1 sequence (P35348 1-466): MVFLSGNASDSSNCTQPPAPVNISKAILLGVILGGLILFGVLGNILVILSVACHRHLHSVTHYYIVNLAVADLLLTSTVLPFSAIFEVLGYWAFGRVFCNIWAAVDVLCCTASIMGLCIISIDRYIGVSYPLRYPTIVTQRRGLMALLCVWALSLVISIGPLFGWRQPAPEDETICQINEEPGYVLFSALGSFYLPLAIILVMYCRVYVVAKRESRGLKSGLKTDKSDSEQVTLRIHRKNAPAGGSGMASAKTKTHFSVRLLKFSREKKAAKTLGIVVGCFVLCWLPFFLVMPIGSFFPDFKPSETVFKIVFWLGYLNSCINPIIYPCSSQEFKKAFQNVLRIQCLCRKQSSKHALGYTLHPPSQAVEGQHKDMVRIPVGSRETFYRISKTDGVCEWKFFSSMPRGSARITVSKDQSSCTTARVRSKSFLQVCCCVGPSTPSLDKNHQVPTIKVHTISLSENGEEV

α1B-ARs = biological target: T2, α1B-ARs (Homo sapiens, UniProt P35368); design: method as in PMID 27658792; key to α1B Profile: ANT—antagonist; AGO—agonist; conditions: cited from earlier work
T2 sequence (P35368 1-520): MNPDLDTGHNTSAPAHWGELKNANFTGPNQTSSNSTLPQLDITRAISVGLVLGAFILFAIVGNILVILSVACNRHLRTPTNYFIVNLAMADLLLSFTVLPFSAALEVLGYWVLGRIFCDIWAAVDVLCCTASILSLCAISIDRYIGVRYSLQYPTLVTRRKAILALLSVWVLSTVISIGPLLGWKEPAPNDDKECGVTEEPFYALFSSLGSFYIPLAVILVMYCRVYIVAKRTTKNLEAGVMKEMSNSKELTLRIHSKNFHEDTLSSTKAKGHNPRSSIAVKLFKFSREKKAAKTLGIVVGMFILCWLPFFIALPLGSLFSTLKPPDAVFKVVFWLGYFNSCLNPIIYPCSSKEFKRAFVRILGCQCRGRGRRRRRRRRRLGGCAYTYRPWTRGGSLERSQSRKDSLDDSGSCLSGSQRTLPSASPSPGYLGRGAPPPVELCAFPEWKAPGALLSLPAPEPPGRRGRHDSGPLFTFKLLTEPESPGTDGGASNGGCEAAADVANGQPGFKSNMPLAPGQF

α1D-ARs = biological target: T3, α1D-ARs (Homo sapiens, UniProt P25100); design: method as in PMID 27658792; key to α1D Profile: ANT—antagonist; AGO—agonist; conditions: cited from earlier work
T3 sequence (P25100 1-572): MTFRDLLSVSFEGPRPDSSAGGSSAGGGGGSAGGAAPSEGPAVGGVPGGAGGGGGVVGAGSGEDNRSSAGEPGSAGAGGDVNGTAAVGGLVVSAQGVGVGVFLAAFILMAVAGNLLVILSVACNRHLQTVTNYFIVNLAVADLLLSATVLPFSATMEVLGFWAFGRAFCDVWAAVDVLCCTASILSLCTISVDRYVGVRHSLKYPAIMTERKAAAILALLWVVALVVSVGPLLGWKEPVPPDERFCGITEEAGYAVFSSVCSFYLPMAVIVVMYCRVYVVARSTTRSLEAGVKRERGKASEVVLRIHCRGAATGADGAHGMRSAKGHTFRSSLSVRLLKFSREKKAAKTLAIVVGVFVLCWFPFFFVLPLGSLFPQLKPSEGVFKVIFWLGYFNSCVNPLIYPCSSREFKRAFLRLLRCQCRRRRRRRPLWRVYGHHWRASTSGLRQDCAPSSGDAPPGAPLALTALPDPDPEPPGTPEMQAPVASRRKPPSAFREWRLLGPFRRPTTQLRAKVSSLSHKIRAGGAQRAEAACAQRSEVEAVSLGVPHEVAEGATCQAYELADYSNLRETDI

## CC(C)Oc1ccccc1OCCN1CCC(CNS(=O)(=O)c2cccc(Cl)c2F)CC1 [Compound I]
[1]; RLM
  Major Metabolic Pathway: N-dealkylation
[1]; male, rat, rat liver microsomes, pH 7.4, RLM 0.2 mg/mL, compound 10 μM, 37 °C
  microsomal CLint at 10 μM: 87 µL/min/mg
[1]; male, rat, rat liver microsomes, pH 7.4, RLM 0.2 mg/mL, compound 10 μM, 37 °C, read-out: t½
  half-life at 10 μM: 40 min
α2-ARs
  Ki: 1210 ± 99 nM
α1A-ARs; antagonist mode
  IC50: 11.1 nM
α1A-ARs; functional profile
  α1A Profile: ANT ^b
α1B-ARs; antagonist mode
  IC50: 42.1 nM
α1B-ARs; functional profile
  α1B Profile: ANT
α1D-ARs; antagonist mode
  IC50: 15.1 nM
α1D-ARs; functional profile
  α1D Profile: ANT
